Reference: patent US12030876B2, “Aryl hydrocarbon receptor (AHR) agonists and uses thereof” (Ikena Oncology, Inc., priority 2019, dated 2024)

Tests used:
[1] = biological target: T1, AHR (Homo sapiens, UniProt P35869); experiment: DRE-Luciferase Reporter Assay, HepG2 (agonist); assay type: cell-based; conditions: HepG2, Table 2; read-out: DRE-Luc HepG2 - Agonist: Average EC50
T1 construct: endogenous in cells; host or cells: HepG2 (human), transfected with a DRE-luciferase reporter only
T1 sequence (P35869 11-848): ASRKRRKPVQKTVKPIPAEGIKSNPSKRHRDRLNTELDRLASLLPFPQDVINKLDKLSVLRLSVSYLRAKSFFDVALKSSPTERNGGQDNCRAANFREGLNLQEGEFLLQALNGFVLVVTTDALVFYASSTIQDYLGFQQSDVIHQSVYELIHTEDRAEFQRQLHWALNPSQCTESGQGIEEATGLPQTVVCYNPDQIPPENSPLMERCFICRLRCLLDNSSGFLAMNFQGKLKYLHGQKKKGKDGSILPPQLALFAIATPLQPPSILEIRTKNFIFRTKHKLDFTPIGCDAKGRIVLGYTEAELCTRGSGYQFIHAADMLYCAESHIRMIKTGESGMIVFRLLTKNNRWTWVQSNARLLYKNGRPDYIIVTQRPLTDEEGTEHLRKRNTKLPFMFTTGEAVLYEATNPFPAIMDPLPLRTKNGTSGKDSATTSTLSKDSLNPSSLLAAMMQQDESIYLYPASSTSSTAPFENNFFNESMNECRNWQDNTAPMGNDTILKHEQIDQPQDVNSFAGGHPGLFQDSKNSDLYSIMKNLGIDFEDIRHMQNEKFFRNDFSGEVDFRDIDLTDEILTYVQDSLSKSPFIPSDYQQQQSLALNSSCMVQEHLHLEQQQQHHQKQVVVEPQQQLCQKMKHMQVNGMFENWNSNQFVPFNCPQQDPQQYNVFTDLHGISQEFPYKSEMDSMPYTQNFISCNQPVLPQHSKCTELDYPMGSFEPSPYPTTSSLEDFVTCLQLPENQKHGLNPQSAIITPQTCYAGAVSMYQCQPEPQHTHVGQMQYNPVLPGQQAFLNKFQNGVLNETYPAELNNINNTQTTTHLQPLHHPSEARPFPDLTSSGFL
Method: DRE-Luciferase Reporter Assay
AHR binds to Dioxin Responsive Elements (DRE) upstream of genes that it activates. One measure of AHR activity is activation of a reporter gene, such as luciferase, downstream of one or multiple DRE elements. Luciferase activity reflects activation and inhibition of AHR in the cells expressing this reporter.
Murine Hepa1-6 or Hepa-1c1c7 or other murine cell line with a DRE-luciferase reporter either stably or transiently transfected are plated in media in plates (96-well, 384-well or other plates) and incubated overnight at 37 C in a CO2 incubator. Likewise, human HepG2 or other human cell line with a DRE-luciferase reporter either stably or transiently transfected are plated in media in plates (96-well, 384-well or other plates) and incubated overnight at 37 C in a CO2 incubator.
(§1) The next day, an AHR agonist compound is added. Cells are incubated for 6, 16 or 24 hours or another time point and then lysed for determination of luciferase activity as a read-out of the AHR activation. Luciferase can be measured with a commercial kit such as the Promega Luciferase kit or any kit or reagents that provide the luciferin substrate for measuring luciferase activity. The level of luciferase with only activating ligand (e.g. such as TCDD, kynurenine, ITE (2-(1H-indole-3-ylcarbonyl)-4-thiazolecarboxylic methyl ester), VAF347, BNF (beta-naphthoflavone), ICZ (6-formylindolo(3,2-b) carbazole or other AHR ligands) added is the maximum signal while the luciferase with no ligand is the minimum signal. EC50s can be determined as the concentration which activates half of the maximum luciferase activity.

[2] = biological target: T2, AHR (Mus musculus, UniProt P30561); experiment: P450 CYP1A1 Luciferase Assay, Hepa1.6 (agonist); assay type: cell-based, murine; conditions: Hepa1.6, Table 2
T2 sequence (P30561 1-848 F348L/P471L): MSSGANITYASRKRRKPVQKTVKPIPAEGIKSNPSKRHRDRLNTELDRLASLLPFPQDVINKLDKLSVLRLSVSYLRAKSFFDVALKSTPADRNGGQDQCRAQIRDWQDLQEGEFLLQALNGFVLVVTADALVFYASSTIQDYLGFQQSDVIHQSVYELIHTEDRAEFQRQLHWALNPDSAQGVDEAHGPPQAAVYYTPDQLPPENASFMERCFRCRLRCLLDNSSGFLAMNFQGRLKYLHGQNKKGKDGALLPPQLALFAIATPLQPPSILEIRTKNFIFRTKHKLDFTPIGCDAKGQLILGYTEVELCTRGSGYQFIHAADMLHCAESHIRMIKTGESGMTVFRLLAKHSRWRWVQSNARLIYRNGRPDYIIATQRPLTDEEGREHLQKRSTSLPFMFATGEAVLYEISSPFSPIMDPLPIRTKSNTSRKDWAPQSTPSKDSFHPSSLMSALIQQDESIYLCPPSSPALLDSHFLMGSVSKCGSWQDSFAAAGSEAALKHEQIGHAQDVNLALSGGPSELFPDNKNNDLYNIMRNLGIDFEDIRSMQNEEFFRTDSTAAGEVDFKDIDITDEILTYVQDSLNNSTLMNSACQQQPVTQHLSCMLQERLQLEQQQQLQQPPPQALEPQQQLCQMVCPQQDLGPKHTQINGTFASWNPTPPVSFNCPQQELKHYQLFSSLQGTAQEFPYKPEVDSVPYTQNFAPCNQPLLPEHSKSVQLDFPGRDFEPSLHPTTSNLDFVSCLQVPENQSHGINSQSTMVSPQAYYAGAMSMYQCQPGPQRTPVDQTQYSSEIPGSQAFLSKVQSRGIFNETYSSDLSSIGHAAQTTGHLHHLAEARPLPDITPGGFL
Method: P450 CYP1A1 Luciferase Assay
AHR binds to Dioxin Responsive Elements (DRE) upstream of genes that it activates. One measure of AHR activity is P450 CYP1A1 protein levels determined by measuring CYP1A1 enzyme activity using a luminogenic CYP1A1 luciferin-based substrate. Luciferase activity will reflect CYP1A1 activity resulting from activation of AHR in the cells.
Murine Hepa1-6 or Hepa-1c1c7 or other murine cell line, human HepG2 or other human cell line are plated in media (96-well, 384-well or other plates) and incubated overnight at 37 C in a CO2 incubator.
as §1, with “lysed and incubated with a CYP1A1 luciferase-based substrate (e.g. Luciferin-CEE)” for “lysed”, “3, 6, or 12 hours of another time point. Determination” for “determination”, “CYP1A1 enzyme activity” for “the AHR activation. Luciferase”, “P450 Glo CYP1A1 detection reagent” for “Luciferase kit”, “provide” for “provide the luciferin substrate”

For `FC(F)(F)c1cccc(Nc2cc(-c3cccc(Cl)c3)cs2)c1` [I-61], the EC50 [1] was 100 to 1000 nM and the EC50 [2] was > 1000 nM.

With `FC(F)(F)c1cccc(Nc2ncc(-c3cccc(Cl)c3)o2)c1` [I-59] the EC50 [1] was < 10 nM and the EC50 [2] was > 1000 nM.

For `Cc1c(-c2csc(Nc3cccc(C(F)(F)F)c3)n2)cccc1[N+](=O)[O-]` [I-15], the EC50 [1] was < 10 nM and the EC50 [2] was > 1000 nM.

`O=[N+]([O-])c1ccc(-c2csc(Nc3cccc(C(F)(F)F)c3)n2)cc1` [Compound P-3] was tested, and the EC50 [1] was < 10 nM and the EC50 [2] was > 1000 nM.

For `NC(=O)c1cncc(-c2csc(Nc3cccc(C(F)(F)F)c3)n2)c1` [I-17], the EC50 [1] was < 10 nM and the EC50 [2] was 100 to 1000 nM.

In the case of `FC(F)(F)c1ccc(Nc2nc(-c3cccc(Cl)c3)cs2)cc1` [I-21], the EC50 [1] is reported as < 10 nM and the EC50 [2] is reported as > 1000 nM.

`O=C(O)c1cccc(-c2csc(Nc3cccc(C(F)(F)F)c3)n2)c1` [I-33] was tested, and the EC50 [1] was 100 to 1000 nM and the EC50 [2] was > 1000 nM.

For `C[N+](C)(C)CCNC(=O)N(c1cccc(C(F)(F)F)c1)c1nc(-c2cccc([N+](=O)[O-])c2)cs1` [I-1], the EC50 [1] was < 10 nM and the EC50 [2] was 10 to 100 nM.

With `COc1ccc(-c2csc(Nc3cccc(C(F)(F)F)c3)n2)cc1` [I-46] the EC50 [1] was > 1000 nM and the EC50 [2] was > 1000 nM.

For `CN(CCOCCN(c1cccc(C(F)(F)F)c1)c1nc(-c2cccc(Cl)c2)cs1)CC(=O)O` [I-39], the EC50 [1] was 100 to 1000 nM and the EC50 [2] was > 1000 nM.

In the case of `C[N+]1(C)CCN(C(=O)c2cccc(-c3csc(Nc4cccc(C(F)(F)F)c4)n3)c2)CC1` [I-53], the EC50 [1] is reported as > 1000 nM and the EC50 [2] is reported as > 1000 nM.

For `C[N+](C)(C)CCCC(=O)N(c1cccc(C(F)(F)F)c1)c1nc(-c2cccc(Cl)c2)cs1` [I-29], the EC50 [1] was 10 to 100 nM and the EC50 [2] was 100 to 1000 nM.

`Clc1cccc(Nc2nc(-c3cccc(Cl)c3)cs2)c1` [Compound P-5] was tested, and the EC50 [1] was < 10 nM and the EC50 [2] was > 1000 nM.

In the case of `FC(F)(F)c1cccc(Nc2nc(-c3ccc4cc[nH]c4c3)cs2)c1` [I-23], the EC50 [1] is reported as < 10 nM and the EC50 [2] is reported as > 1000 nM.

With `FC(F)(F)c1cccc(Nc2nc(-c3cccc(Cl)c3)cs2)n1` [I-6] the EC50 [1] was < 10 nM and the EC50 [2] was > 1000 nM.

In the case of `C[N+]1(CCNC(=O)N(c2cccc(C(F)(F)F)c2)c2nc(-c3cccc(Cl)c3)cs2)CCC(O)CC1` (stereo not drawn) [I-20], the EC50 [1] is reported as < 10 nM and the EC50 [2] is reported as > 1000 nM.

With `N#Cc1cccc(Nc2nc(-c3cccc(Cl)c3)cs2)c1` [I-25] the EC50 [1] was 10 to 100 nM and the EC50 [2] was > 1000 nM.

In the case of `Clc1cccc(-c2csc(Nc3ccccn3)n2)c1` [Compound P-13], the EC50 [1] is reported as 100 to 1000 nM and the EC50 [2] is reported as > 1000 nM.

For `FC(F)(F)Oc1cccc(Nc2nc(-c3cccc(Cl)c3)cs2)c1` [I-13], the EC50 [1] was < 10 nM and the EC50 [2] was > 1000 nM.

`C[N+](C)(CCO)CCCNC(=O)N(c1cccc(C(F)(F)F)c1)c1nc(-c2cccc(Cl)c2)cs1` [I-26] was tested, and the EC50 [1] was 10 to 100 nM and the EC50 [2] was > 1000 nM.

In the case of `C[N+](C)(CCO)CCCC(=O)N(c1cccc(C(F)(F)F)c1)c1nc(-c2cccc(Cl)c2)cs1` [I-42], the EC50 [1] is reported as 100 to 1000 nM and the EC50 [2] is reported as > 1000 nM.

For `FC(F)(F)c1cccc(Nc2nc(-c3ccc(Cl)cc3)cs2)c1` [Compound P-10], the EC50 [1] was 10 to 100 nM and the EC50 [2] was > 1000 nM.

With `C[N+](C)(C)CCNC(=O)Nc1cccc(-c2csc(Nc3cccc(C(F)(F)F)c3)n2)c1` [I-47] the EC50 [1] was > 1000 nM and the EC50 [2] was > 1000 nM.

For `C[N+](C)(CCNC(=O)N(c1cccc(C(F)(F)F)c1)c1nc(-c2cccc(Cl)c2)cs1)CCNC(=O)N(c1cccc(C(F)(F)F)c1)c1nc(-c2cccc(Cl)c2)cs1` [I-2], the EC50 [1] was < 10 nM and the EC50 [2] was 100 to 1000 nM.

With `FC(F)(F)c1cccc(Nc2nc(-c3cccc(Br)c3)cs2)c1` [Compound P-4] the EC50 [1] was < 10 nM and the EC50 [2] was 100 to 1000 nM.

In the case of `C[N+](C)(CCO)CCOC(=O)N(c1cccc(C(F)(F)F)c1)c1nc(-c2cccc(Cl)c2)cs1` [I-31], the EC50 [1] is reported as 10 to 100 nM and the EC50 [2] is reported as > 1000 nM.

With `COc1cccc(-c2csc(Nc3cccc(C(F)(F)F)c3)n2)c1` [Compound P-11] the EC50 [1] was 10 to 100 nM and the EC50 [2] was > 1000 nM.

With `C[N+](C)(CCO)CCNC(=O)N(c1cccc(C(F)(F)F)c1)c1nc(-c2cccc([N+](=O)[O-])c2)cs1` [I-4] the EC50 [1] was < 10 nM and the EC50 [2] was 10 to 100 nM.

`O=[N+]([O-])c1cccc(-c2csc(Nc3cccc(C(F)(F)F)c3)n2)c1` [Compound P-1] was tested, and the EC50 [1] was < 10 nM and the EC50 [2] was 10 to 100 nM.

`FC(F)(F)c1cccc(Nc2nc(-c3ccc(Cl)c(Cl)c3)cs2)c1` [I-12] was tested, and the EC50 [1] was < 10 nM and the EC50 [2] was > 1000 nM.

With `CN(C)c1cccc(-c2csc(Nc3cccc(C(F)(F)F)c3)n2)c1` [I-30] the EC50 [1] was 10 to 100 nM and the EC50 [2] was 100 to 1000 nM.

`CN1CCN(C(=O)c2cccc(-c3csc(Nc4cccc(C(F)(F)F)c4)n3)c2)CC1` [I-48] was tested, and the EC50 [1] was > 1000 nM and the EC50 [2] was > 1000 nM.

With `Clc1cccc(-c2csc(Nc3ccccc3)n2)c1` [Compound P-7] the EC50 [1] was < 10 nM and the EC50 [2] was > 1000 nM.

For `O=C(c1cccc(-c2csc(Nc3cccc(C(F)(F)F)c3)n2)c1)N1CCOCC1` [I-43], the EC50 [1] was 100 to 1000 nM and the EC50 [2] was > 1000 nM.

`Oc1cccc(-c2csc(Nc3cccc(C(F)(F)F)c3)n2)c1` [I-18] was tested, and the EC50 [1] was < 10 nM and the EC50 [2] was > 1000 nM.

In the case of `C[N+](C)(C)CCCC(=O)Nc1cccc(-c2csc(Nc3cccc(C(F)(F)F)c3)n2)c1` [I-40], the EC50 [1] is reported as 100 to 1000 nM and the EC50 [2] is reported as > 1000 nM.

In the case of `FC(F)(F)c1cccc(Nc2cc(-c3cccc(Cl)c3)cs2)c1` [I-60], the EC50 [1] is reported as 10 to 100 nM and the EC50 [2] is reported as > 1000 nM.

`CN(C)C(=O)c1cccc(-c2csc(Nc3cccc(C(F)(F)F)c3)n2)c1` [I-50] was tested, and the EC50 [1] was > 1000 nM and the EC50 [2] was > 1000 nM.

For `FC(F)(F)c1cncc(Nc2nc(-c3cccc(Cl)c3)cs2)c1` [I-5], the EC50 [1] was < 10 nM and the EC50 [2] was > 1000 nM.
